Source: US11111217B2, “2-arylbenzimidazoles as Ppargc1a activators for treating neurodegenerative diseases” (The Board of Trustees of the Leland Stanford Junior …, priority 2018, dated 2021)
“And” between values parts separate entries of the source, which are not always exact repeats. Identical values can stand only once.

Assays:
[1] = Microsome stability assay, mouse liver microsomes; type: in vitro ADME; details: pH 7.4, 1 μM test compound, NADPH 1 mM, 37° C., 0-40 mins, read-out: MLM t1/2
Protocol: (§1) Microsome Stability Assay Protocol
(§2) Human liver microsomes (Corning #452117 lot 38291) or Mouse liver microsomes (Corning #452701, lot #6328004) were separately combined at a final concentration of […] with KxPO4 pH 7.4 (100 mM), MgCl2 (10 mM), and test compound (1 μM) and pre-incubated (10 min, 37° C.). Next, NADPH (1 mM) was added to begin reactions (total volume 100 μL). At various time points (0, 10, 20, and 40 mins), reactions were quenched with Clem stop solution (100 μL, 625 ng/mL) (Cyprotex) in Acetonitrile. Samples were centrifuged at 4000 g for 20 mins, diluted (75 μL into 75 μL 0.1% formic acid in water), and analyzed by LC-MS/MS.

Caco-2 cells = assay: Caco-2 permeability assay; details: 10 μM, HBSS pH 7.4, 37° C., 2 h; for Caco2 A → B: without elacridar
Protocol: Caco-2 Permeability Assay Protocol
Caco-2 cells were maintained in DMEM in an atmosphere of 5% CO2. For transport experiments 5×10^5 cells/well of were seeded on polycarbonate filter inserts and allowed to grow and differentiate for 21±4 days before the cell monolayers were used for experiments. Apparent permeability coefficients were determined for A→B and B→A directions with and without the presence of elacridar as a transporter inhibitor. Up to three test items and reference compounds were dissolved in Hank's balanced salt solution at pH 7.4 to yield a final concentration of 10 μM.
The assays were performed in HBSS containing 25 mM HEPES (pH 7.4) at 37° C. Prior to the study, the monolayers were washed in prewarmed HBSS. At the start of the experiments prewarmed HBSS containing the test items was added to the donor side of the monolayer and HBSS without test items was added to the receiver side. Aliquots of the receiver side were taken over the 2 h incubation period; aliquots of the donor side were taken at 0 hand 2 h. Aliquots were diluted with an equal volume of methanol/water with 0.1% formic acid containing the internal standard. The mixture was analyzed by LC-MS/MS. The apparent permeability coefficients (Papp) were calculated using the formula: Papp=(dCrec/dt)/(A×C0,donor)]×106 with dCrev/dt being the change in concentration in the receiver compartment with time, C0,donor the concentration in the donor compartment at time 0, and A the area of the compartment with the cells.

[2] = Caco-2 permeability assay; details: human, Caco-2, pH 7.4, with elacridar (concentration not stated)
[3] = Microsome stability assay, human liver microsomes; type: in vitro ADME; details: pH 7.4, 1 μM test compound, NADPH 1 mM, 37° C., 0-40 mins, read-out: HLM t1/2
Protocol: as §1, §2

[4] = test system: TNF-α production by BV2 cells or PBMC; assay: Cellular assay to measure TNF-α inhibition (LPS-stimulated, ELISA); type: cell-based, murine (BV2) or human (PBMC); details: BV2 cells or PBMC (not specified), LPS 100 ng/ml over 24 hours, relative to DMSO vehicle; compound concentration not stated
Description: Oxidative metabolism exerts an anti-inflammatory effect on myeloid cell phenotype (O'Neill L A, Front Immunol. 2014) and Ppargc1a can promote this energy metabolic pathway (Spiegelman BM, Novartis Found Symp. 2007). Thus, pharmacological activation of Ppargc1a would be expected to inhibit the inflammatory response of myeloid cells. This phenomenon can be measured in cultures by a TNF-α inhibition assay.
Cellular Assay Protocol to Measure TNF-α Inhibition
The murine myeloid cell line BV2 or human peripheral blood mononuclear cells (PBMC) are cultured in RPMI 1640 media (Cat #11875119, Gibco) supplemented with 10% fetal bovine serum and 1% L-glutamine 1% penicillin. These cells are then stimulated with 100 ng/ml of lipopolysaccharide (LPS, O111:B34, Cat # L2630, Sigma) over 24 hours. LPS stimulation results in the secretion of the inflammatory cytokine TNF-α by BV2 cells or PBMC, which can be quantified by ELISA in culture supernatant samples per manufacturer's protocol (Cat #558273 for BV2 and Cat #558299 for PBMC, BD Biosciences). To determine whether exampl compounds 1-78 inhibit TNF-α production by BV2 cells or PBMC, the cells were cultured in the presence of the compounds at different concentrations, and fold reduction in TNF-α production relative to TNF-α production by the same cells cultured in the presence of dimethylsulfoxide (as vehicle control) was determined.

Compound	half-life at 1 μM [1]	Caco2 A → B (Caco-2 cells)	Papp A→B at 2 h, 10 μM [2]	half-life at 1 μM [3]	Caco2 B → A (Caco-2 cells)	Caco2 A → B w/ elacridar (Caco-2 cells; with elacridar as transporter inhibitor)	TNF α Inhibition [4]
CC(C)(C)c1ccc(-c2nc3ccccc3n2COP(=O)(O)O)cc1 [Example 10-P, Dihydrogen ((2-(4-(tert-butyl)phenyl)-1H-benzo[d]imidazol-1-yl)methyl) phosphate]	159 min	0.0893, nm/s and 0.0565 nm/s	0.0014 ×10⁻⁶ cm/s	159 min	–	–	–
CC(C)(C)c1ccc(-c2cn3ccccc3n2)cc1 [Example 5, 2-(4-tert-Butylphenyl)imidazo[1,2-a]pyridine]	8.4 min	9.86 nm/s	0.858 ×10⁻⁶ cm/s	11.5 min	–	–	A (A = >80% inh.)
CC(C)(C)c1ccc(-c2nc3cnccc3[nH]2)cc1 [Example 2, 2-(4-(tert-Butyl)phenyl)-1H-imidazo[4,5-c]pyridine]	–	24.7 nm/s and 22.3 nm/s	2.15 ×10⁻⁶ cm/s	–	57.1 nm/s	–	A (A = >80% inh.)
CC(=O)OCn1c(-c2ccc(C(C)(C)C)cc2)nc2ccccc21 [Example 1-P, (2-(4-(tert-Butyl)phenyl)-1H-benzo[d]imidazol-1-yl)methyl acetate]	–	–	0.105 ×10⁻⁶ cm/s	10.1 min	–	–	–
CCCC(=O)OCn1c(-c2ccc(C(C)(C)C)cc2)nc2ccccc21 [Example 2-P, (2-(4-(tert-Butyl)phenyl)-1H-benzo[d]imidazol-1-yl)methyl butyrate]	–	0.532 nm/s and 1.01 nm/s	0.0282 ×10⁻⁶ cm/s	–	–	–	–
Cc1cccc(-c2nc3ccccc3[nH]2)c1 [Example 9, 2-(3-Methylphenyl)-1H-benzo[d]imidazole]	–	–	–	–	–	–	C (C = <50% inh.)
N#Cc1ccc(-c2nc3ccccc3[nH]2)cc1 [Example 18, 2-(4-Cyanophenyl)-1H-benzo[d]imidazole]	–	–	–	–	–	–	C (C = <50% inh.)
CC(C)c1ccc(-c2nc3ccccc3[nH]2)cc1 [Example 33, 2-(4-Isopropylphenyl)-1H-benzo[d]imidazole]	–	–	–	–	–	–	C (C = <50% inh.)
FC(F)(F)c1ccccc1-c1nc2ccccc2[nH]1 [Example 22, 2-(2-Trifluoro-methylphenyl)-1H-benzo[d]imidazole]	–	–	–	–	–	–	C (C = <50% inh.)
N#Cc1cccc(-c2nc3ccccc3[nH]2)c1 [Example 30, 2-(3-Cyanophenyl)-1H-benzo[d]imidazole]	–	–	–	–	–	–	C (C = <50% inh.)
CC(C)(C)c1ccc(-c2nc3cnccc3[nH]2)cn1 [Example 13, 2-(6-tert-Butyl-3-pyridyl)-1H-imidazo[4,5-c]-pyridine]	–	–	–	–	–	–	B (B = 50-80% inh.)
Fc1cccc(-c2nc3ccccc3[nH]2)c1 [Example 36, 2-(3-Fluorophenyl)-1H-benzo[d]imidazole]	–	–	–	–	–	–	C (C = <50% inh.)
Oc1ccccc1-c1nc2ccccc2[nH]1 [Example 16, 2-(2-Hydroxy-phenyl)-1H-benzo[d]imidazole]	–	–	–	–	–	–	C (C = <50% inh.)
CC(C)(C)c1ccc(-c2nc3ccccc3s2)cc1 [Example 3, 2-(4-tert-Butylphenyl)-1,3-benzothiazole]	–	–	–	–	–	–	C (C = <50% inh.)
c1ccc(-c2ccc(-c3nc4ccccc4[nH]3)cc2)cc1 [Example 65, 2-(4-Biphenyl)-1H-benzo[d]imidazole]	–	–	–	–	–	–	C (C = <50% inh.)
Cc1ccc(-c2nc3ccccc3[nH]2)cc1 [Example 11, 2-(4-Methylphenyl)-1H-benzo[d]imidazole]	–	–	–	–	–	–	A (A = >80% inh.)
Fc1ccc(-c2nc3ccccc3[nH]2)cc1 [Example 34, 2-(4-Fluorophenyl)-1H-benzo[d]imidazole]	–	–	–	–	–	–	C (C = <50% inh.)

The next lines start with results.

half-life at 1 μM [1]	Caco2 A → B (Caco-2 cells)	Papp A→B at 2 h, 10 μM [2]	half-life at 1 μM [3]	Caco2 B → A (Caco-2 cells)	Caco2 A → B w/ elacridar (Caco-2 cells; with elacridar as transporter inhibitor)	Compound	TNF α Inhibition [4]
3.2 min	93.2 nm/s	3.31 ×10⁻⁶ cm/s	4.2 min	–	–	COc1ccc(-c2nc3ccccc3[nH]2)cc1 [Example 21, 2-(4-Methoxy-phenyl)-1H-benzo[d]imidazole]	A (A = >80% inh.)
23.8 min	15.5 nm/s	1.06 ×10⁻⁶ cm/s	13.6 min	–	–	[2H]c1cc([2H])c2nc(-c3ccc(C(C)(C)C)cc3)[nH]c2c1 [Example 61, 2-(4-tert-Butylphenyl)-4,6-dideuterio-1H-benzo[d]imidazole]	A (A = >80% inh.)
–	16 nm/s	1.33 ×10⁻⁶ cm/s	–	28.5 nm/s	–	CC(C)(C)c1ccc(-c2nc3cc(C(N)=O)ccc3[nH]2)cc1 [Example 75, 2-(4-tert-Butylphenyl)-1H-benzo[d]imidazol-5-carboxamide]	A (A = >80% inh.)
132 min	–	0.0336 ×10⁻⁶ cm/s	59.8 min	1.31 nm/s	0.005 nm/s	CC(C)(C)c1ccc(-c2nc3c(F)c(F)c(F)c(F)c3[nH]2)cc1 [Example 63, 2-(4-tert-Butylphenyl)-4,5,6,7-tetrafluoro-1H-benzo[d]imidazole]	A (A = >80% inh.)
10.5 min	13.3 nm/s	0.0634 ×10⁻⁶ cm/s	31.3 min	–	–	CC(C)(C)c1cccc(-c2nc3c(F)cc(F)cc3[nH]2)c1 [Example 77, 2-(3-tert-Butylphenyl)-4,6-difluoro-1H-benzo[d]imidazole]	A (A = >80% inh.)
20.6 min	23.6 nm/s	2.05 ×10⁻⁶ cm/s	42.5 min	45.4 nm/s	–	CC(C)(C)c1ccc(-c2nc3cc(N)ccc3[nH]2)cc1 [Example 44, 2-(4-tert-Butylphenyl)-1H-benzo[d]imidazol-5-amine]	A (A = >80% inh.)
8.3 min	47.8 nm/s	3.11 ×10⁻⁶ cm/s	25.4 min	–	–	Nc1ccc(-c2nc3ccccc3[nH]2)cc1 [Example 76, 2-(4-Aminophenyl)-1H-benzo[d]imidazole]	A (A = >80% inh.)
4.7 min	21 nm/s	0.86 ×10⁻⁶ cm/s	6.9 min	30.9 nm/s	–	CC(C)(C)c1cccc(-c2nc3ccccc3[nH]2)c1 [Example 58, 2-(3-tert-Butylphenyl)-1H-benzo[d]imidazole]	A (A = >80% inh.)
23.2 min	0.748 nm/s	0.0849 ×10⁻⁶ cm/s	103 min	1.73 nm/s	–	CC(C)(C)c1ccc(-c2nc3c(C(F)(F)F)cccc3[nH]2)cc1 [Example 56, 2-(4-tert-Butylphenyl)-4-(trifluoromethyl)-1H-benzo[d]imidazole]	A (A = >80% inh.)
19.8 min	15.8 nm/s	0.916 ×10⁻⁶ cm/s	14.3 min	40.7 nm/s	–	[2H]c1c([2H])c([2H])c2[nH]c(-c3ccc(C(C)(C)C)cc3)nc2c1[2H] [Example 60, 2-(4-tert-Butylphenyl)-4,5,6,7-tetradeuterio-1H-benzo[d]imidazole]	A (A = >80% inh.)
5.5 min	9.33 nm/s and 6.35 nm/s	0.251 ×10⁻⁶ cm/s	25.1 min	–	–	COC(=O)n1c(-c2ccc(C(C)(C)C)cc2)nc2ccccc21 [Example 14-P, Methyl 2-(4-(tert-butyl)phenyl)-1H-benzo[d]imidazole-1-carboxylate]	–
